Test results as given in ChEMBL document CHEMBL3885861, “Open TG-GATES”.

Organism: Rattus norvegicus
Assay: Open TG-GATES - Regimen: Daily Repeat
Format: toxicity, organism-based, Sprague-Dawley
Design: regimen Daily Repeat, gender Male, age 6 weeks
Conditions: in vivo, po, 10 mg/kg, route gavage, dose level Low; for APTT / Bas / Eos / Fbg / Hb / Ht / Lym / MCH / MCHC / MCV / Mono / Neu / PT / Plat / RBC / Ret / WBC: tissue Blood; for KIDNEY_L / KIDNEY_R / KIDNEY_TOTAL: tissue Kidney; for LIVER: tissue Liver; for A/G / ALP / ALT / AST / BUN / CRE / Ca / Cl / DBIL / GLC / IP / K / LDH / Na / PL / RALB / TBIL / TC / TG / TP / gamma-GTP: tissue Plasma

Question: Which results are given for `CCCc1cc(=O)[nH]c(=S)[nH]1` [PROPYLTHIOURACIL]?
Answer: TERMINAL_BW (72 h, time 3 day): 207 g; APTT (72 h, time 3 day): 15.4 s; Bas (72 h, time 3 day): 0%; Eos (72 h, time 3 day): 0%; Fbg (72 h, time 3 day): 238.6 mg/dL; Hb (72 h, time 3 day): 13.5 g/dL; Ht (72 h, time 3 day): 40.4%; Lym (72 h, time 3 day): 75.2%; MCH (72 h, time 3 day): 21.4 pg; MCHC (72 h, time 3 day): 33.3%; MCV (72 h, time 3 day): 64.3 fL; Mono (72 h, time 3 day): 7.4%; Neu (72 h, time 3 day): 17.4%; PT (72 h, time 3 day): 12.4 s; Plat (72 h, time 3 day): 93.7 x10_4/uL; RBC (72 h, time 3 day): 629.4 x10_4/ul; Ret (72 h, time 3 day): 6.6%; WBC (72 h, time 3 day): 124.3 x10_2/uL; KIDNEY_L (72 h, time 3 day): 0.9 g; KIDNEY_R (72 h, time 3 day): 0.9 g; KIDNEY_TOTAL (72 h, time 3 day): 1.8 g; LIVER (72 h, time 3 day): 10 g; A/G (72 h, time 3 day): 2; ALP (72 h, time 3 day): 1039.8 IU/L; ALT (72 h, time 3 day): 30.4 IU/L; AST (72 h, time 3 day): 54.4 IU/L; BUN (72 h, time 3 day): 20 mg/dL; CRE (72 h, time 3 day): 0.5 mg/dL; Ca (72 h, time 3 day): 11.2 mg/dL; Cl (72 h, time 3 day): 105.8 meq/L; DBIL (72 h, time 3 day): 0 mg/dL; GLC (72 h, time 3 day): 185.4 mg/dL; IP (72 h, time 3 day): 7.1 mg/dL; K (72 h, time 3 day): 4.7 meq/L; LDH (72 h, time 3 day): 81.2 IU/L; Na (72 h, time 3 day): 138 meq/L; PL (72 h, time 3 day): 161.4 mg/dL; RALB (72 h, time 3 day): 3.9 g/dL; TBIL (72 h, time 3 day): 0.3 mg/dL; TC (72 h, time 3 day): 97.6 mg/dL; TG (72 h, time 3 day): 87.4 mg/dL; TP (72 h, time 3 day): 5.9 g/dL; gamma-GTP (72 h, time 3 day): 2 IU/L; TERMINAL_BW ([…], time 7 day): 233.5 g; TERMINAL_BW ([…], time 14 day): 245.3 g; TERMINAL_BW ([…], time 28 day): 243.1 g; APTT ([…], time 7 day): 15.3 s; Bas ([…], time 7 day): 0%; Eos ([…], time 7 day): 0.2%; Fbg ([…], time 7 day): 252.2 mg/dL; Hb ([…], time 7 day): 13.9 g/dL; Ht ([…], time 7 day): 41.5%; Lym ([…], time 7 day): 86.6%; MCH ([…], time 7 day): 21 pg; MCHC ([…], time 7 day): 33.4%; MCV ([…], time 7 day): 62.8 fL; Mono ([…], time 7 day): 6.6%; Neu ([…], time 7 day): 6.6%; PT ([…], time 7 day): 12.6 s; Plat ([…], time 7 day): 117.2 x10_4/uL; RBC ([…], time 7 day): 662.4 x10_4/ul; Ret ([…], time 7 day): 4%; WBC ([…], time 7 day): 116 x10_2/uL; APTT ([…], time 14 day): 16.4 s; Bas ([…], time 14 day): 0%; Eos ([…], time 14 day): 0.4%; Fbg ([…], time 14 day): 194.6 mg/dL; Hb ([…], time 14 day): 14.7 g/dL; Ht ([…], time 14 day): 43.7%; Lym ([…], time 14 day): 90.6%; MCH ([…], time 14 day): 20.6 pg; MCHC ([…], time 14 day): 33.7%; MCV ([…], time 14 day): 61.1 fL; Mono ([…], time 14 day): 3.8%; Neu ([…], time 14 day): 5.2%; PT ([…], time 14 day): 14 s; Plat ([…], time 14 day): 101.1 x10_4/uL; RBC ([…], time 14 day): 715.2 x10_4/ul; Ret ([…], time 14 day): 1.3%; WBC ([…], time 14 day): 120.9 x10_2/uL; APTT ([…], time 28 day): 15.2 s; Bas ([…], time 28 day): 0%; Eos ([…], time 28 day): 1.6%; Fbg ([…], time 28 day): 176.8 mg/dL; Hb ([…], time 28 day): 16.3 g/dL; Ht ([…], time 28 day): 48.4%; Lym ([…], time 28 day): 85.4%; MCH ([…], time 28 day): 19.3 pg; MCHC ([…], time 28 day): 33.7%; MCV ([…], time 28 day): 57.5 fL; Mono ([…], time 28 day): 4.8%; Neu ([…], time 28 day): 8.2%; PT ([…], time 28 day): 14.8 s; Plat ([…], time 28 day): 83 x10_4/uL; RBC ([…], time 28 day): 843.2 x10_4/ul; Ret ([…], time 28 day): 0.7%; WBC ([…], time 28 day): 61.3 x10_2/uL; KIDNEY_L ([…], time 7 day): 1 g; KIDNEY_R ([…], time 7 day): 1 g; KIDNEY_TOTAL ([…], time 7 day): 1.9 g; KIDNEY_L ([…], time 14 day): 0.9 g; KIDNEY_R ([…], time 14 day): 0.9 g; KIDNEY_TOTAL ([…], time 14 day): 1.7 g; KIDNEY_L ([…], time 28 day): 0.8 g; KIDNEY_R ([…], time 28 day): 0.8 g; KIDNEY_TOTAL ([…], time 28 day): 1.7 g; LIVER ([…], time 7 day): 12.4 g; LIVER ([…], time 14 day): 10.5 g; LIVER ([…], time 28 day): 7.9 g; A/G ([…], time 7 day): 1.8; ALP ([…], time 7 day): 740.8 IU/L; ALT ([…], time 7 day): 27.6 IU/L; AST ([…], time 7 day): 48.8 IU/L; BUN ([…], time 7 day): 20.4 mg/dL; CRE ([…], time 7 day): 0.5 mg/dL; Ca ([…], time 7 day): 11.5 mg/dL; Cl ([…], time 7 day): 105.6 meq/L; DBIL ([…], time 7 day): 0.008 mg/dL; GLC ([…], time 7 day): 169.4 mg/dL; IP ([…], time 7 day): 7.2 mg/dL; K ([…], time 7 day): 4.9 meq/L; LDH ([…], time 7 day): 83.8 IU/L; Na ([…], time 7 day): 139.6 meq/L; PL ([…], time 7 day): 174.2 mg/dL; RALB ([…], time 7 day): 4.1 g/dL; TBIL ([…], time 7 day): 0.3 mg/dL; TC ([…], time 7 day): 108 mg/dL; TG ([…], time 7 day): 116.6 mg/dL; TP ([…], time 7 day): 6.4 g/dL; gamma-GTP ([…], time 7 day): 1.4 IU/L; A/G ([…], time 14 day): 1.7; ALP ([…], time 14 day): 568 IU/L; ALT ([…], time 14 day): 27 IU/L; AST ([…], time 14 day): 52.8 IU/L; BUN ([…], time 14 day): 26.6 mg/dL; CRE ([…], time 14 day): 0.7 mg/dL; Ca ([…], time 14 day): 11.1 mg/dL; Cl ([…], time 14 day): 106.4 meq/L; DBIL ([…], time 14 day): 0.006 mg/dL; GLC ([…], time 14 day): 178.6 mg/dL; IP ([…], time 14 day): 6.3 mg/dL; K ([…], time 14 day): 4.3 meq/L; LDH ([…], time 14 day): 68.4 IU/L; Na ([…], time 14 day): 141 meq/L; PL ([…], time 14 day): 152.6 mg/dL; RALB ([…], time 14 day): 4.2 g/dL; TBIL ([…], time 14 day): 0.2 mg/dL; TC ([…], time 14 day): 96.4 mg/dL; TG ([…], time 14 day): 59.8 mg/dL; TP ([…], time 14 day): 6.7 g/dL; gamma-GTP ([…], time 14 day): 2.2 IU/L; A/G ([…], time 28 day): 2; ALP ([…], time 28 day): 628 IU/L; ALT ([…], time 28 day): 35.4 IU/L; AST ([…], time 28 day): 63.4 IU/L; BUN ([…], time 28 day): 25.8 mg/dL; CRE ([…], time 28 day): 0.7 mg/dL; Ca ([…], time 28 day): 10.5 mg/dL; Cl ([…], time 28 day): 108.6 meq/L; DBIL ([…], time 28 day): 0.056 mg/dL; GLC ([…], time 28 day): 161 mg/dL; IP ([…], time 28 day): 5.7 mg/dL; K ([…], time 28 day): 4.2 meq/L; LDH ([…], time 28 day): 62.6 IU/L; Na ([…], time 28 day): 141.2 meq/L; PL ([…], time 28 day): 150.6 mg/dL; RALB ([…], time 28 day): 4.3 g/dL; TBIL ([…], time 28 day): 0.2 mg/dL; TC ([…], time 28 day): 100.8 mg/dL; TG ([…], time 28 day): 44.6 mg/dL; TP ([…], time 28 day): 6.5 g/dL; gamma-GTP ([…], time 28 day): 3.2 IU/L
